These are literature values, as cited in US20260165989A1 (Société des Produits Nestlé S.A., priority 2024, published 2026).

The conditions of this data set: counter ion (base) for salt screening.

Regarding `C[N+](C)(C)CC(=O)O` [Betaine], the “pKa(s)*” value was 12.2.
